# Results as given in patent US9738634B2, “Heterocyclic amide compound and herbicide” (SYNGENTA PARTICIPATIONS AG, priority 2013, dated 2017).
# Key:
# Assay type in all cases: in vivo
# Settings in all cases: treatment dosage 320 g/ha
# [1] = tested on: beet; experiment: Test Example 3: soil treatment, effect on crop; f: beet
# How it was run: (§1)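 Crop and weed responses were judged three weeks after a uniform surface spray of the water-diluted emulsion at the given g/ha rate. Seeds sat beneath about 1.5 cm of sterilized diluvial soil, and boxes stood in a greenhouse at 25 to 30° C.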
# [2] = tested on: wheat; experiment: Test Example 3: soil treatment, effect on crop; e: wheat
# How it was run: as §1
# [3] = tested on: crabgrass; experiment: Test Example 3: weedkilling efficacy through soil treatment; D: crabgrass
# How it was run: as §1
# [4] = tested on: oval-leafed pondweed; experiment: Test Example 1: weedkilling efficacy, preemergent weed treatment in the submerged state; C: oval-leafed pondweed
# How it was run: (§2)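 Alluvial soil in Wagner pots flooded to 4 cm; barnyard grass, bulrush and oval-leafed pondweed seeds sown, then 2.5-leaf rice seedlings transplanted. Same day, emulsified compound diluted in water to set g/ha dosages and applied to water surface; greenhouse 25–30 °C, effect scored by criteria after 3 weeks.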
# [5] = tested on: barnyard grass; experiment: Test Example 4: weedkilling efficacy by foliar treatment; F: barnyard grass
# How it was run: (§3)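 Seeds are spot-sown into sterilized diluvial soil and covered with about 1.5 cm of soil. After 14 days' greenhouse growth at 25 to 30° C, plants are sprayed on stems and leaves with diluted emulsion at the stated g/ha rate, then scored at 3 weeks.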
# [6] = tested on: black-grass; experiment: Test Example 4: weedkilling efficacy by foliar treatment; H: black-grass
# How it was run: as §3
# [7] = tested on: Indian mallow; experiment: Test Example 3: weedkilling efficacy through soil treatment; K: Indian mallow
# How it was run: as §1
# [8] = tested on: Indian mallow; experiment: Test Example 4: weedkilling efficacy by foliar treatment; K: Indian mallow
# How it was run: as §3
# [9] = tested on: common wind-grass; experiment: Test Example 3: weedkilling efficacy through soil treatment; J: common wind-grass
# How it was run: as §1
# [10] = tested on: barnyard grass; experiment: Test Example 3: weedkilling efficacy through soil treatment; F: barnyard grass
# How it was run: as §1
# [11] = tested on: directly sown rice; experiment: Test Example 3: soil treatment, effect on crop; b: directly sown rice
# How it was run: as §1
# [12] = tested on: Italian ryegrass; experiment: Test Example 3: weedkilling efficacy through soil treatment; I: Italian ryegrass
# How it was run: as §1
# [13] = tested on: wild oat; experiment: Test Example 4: weedkilling efficacy by foliar treatment; G: wild oat
# How it was run: as §3
# [14] = tested on: catchweed; experiment: Test Example 4: weedkilling efficacy by foliar treatment; O: catchweed
# How it was run: as §3
# [15] = tested on: crabgrass; experiment: Test Example 4: weedkilling efficacy by foliar treatment; D: crabgrass
# How it was run: as §3
# [16] = tested on: fig-leafed goosefoot; experiment: Test Example 4: weedkilling efficacy by foliar treatment; M: fig-leafed goosefoot
# How it was run: as §3
# [17] = tested on: rapeseed; experiment: Test Example 3: soil treatment, effect on crop; g: rapeseed
# How it was run: as §1
# [18] = tested on: redroot pigweed; experiment: Test Example 3: weedkilling efficacy through soil treatment; L: redroot pigweed
# How it was run: as §1
# [19] = tested on: chickweed; experiment: Test Example 4: weedkilling efficacy by foliar treatment; N: chickweed
# How it was run: as §3
# [20] = tested on: beet; experiment: Test Example 4: foliar treatment, effect on crop; f: beet
# How it was run: as §3
# [21] = tested on: corn; experiment: Test Example 3: soil treatment, effect on crop; c: corn
# How it was run: as §1
# [22] = tested on: fig-leafed goosefoot; experiment: Test Example 3: weedkilling efficacy through soil treatment; M: fig-leafed goosefoot
# How it was run: as §1
# [23] = tested on: Italian ryegrass; experiment: Test Example 4: weedkilling efficacy by foliar treatment; I: Italian ryegrass
# How it was run: as §3
# [24] = tested on: green foxtail; experiment: Test Example 4: weedkilling efficacy by foliar treatment; E: green foxtail
# How it was run: as §3
# [25] = tested on: oval-leafed pondweed; experiment: Test Example 2: weedkilling efficacy, growth period weed treatment in the submerged state; C: oval-leafed pondweed
# How it was run: (§4)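 First, alluvial soil in pots is flooded to 4 cm and mixed seed is sown. Next, plants grow in a greenhouse at 25 to 30° C until the 1-2 leaf stage. Then diluted emulsion is applied onto the water surface at the given g/ha rate, and injury is assessed after 3 weeks.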
# [26] = tested on: wild oat; experiment: Test Example 3: weedkilling efficacy through soil treatment; G: wild oat
# How it was run: as §1
# [27] = tested on: transplanted rice; experiment: Test Example 1: preemergent weed treatment in the submerged state, effect on crop; a: transplanted rice
# How it was run: as §2
# [28] = tested on: corn; experiment: Test Example 4: foliar treatment, effect on crop; c: corn
# How it was run: as §3
# [29] = tested on: directly sown rice; experiment: Test Example 4: foliar treatment, effect on crop; b: directly sown rice
# How it was run: as §3
# [30] = tested on: birds-eye speedwell; experiment: Test Example 4: weedkilling efficacy by foliar treatment; p: birds-eye speedwell
# How it was run: as §3
# [31] = tested on: barnyard grass; experiment: Test Example 2: weedkilling efficacy, growth period weed treatment in the submerged state; A: barnyard grass
# How it was run: as §4
# [32] = tested on: rapeseed; experiment: Test Example 4: foliar treatment, effect on crop; g: rapeseed
# How it was run: as §3
# [33] = tested on: common wind-grass; experiment: Test Example 4: weedkilling efficacy by foliar treatment; J: common wind-grass
# How it was run: as §3
# [34] = tested on: chickweed; experiment: Test Example 3: weedkilling efficacy through soil treatment; N: chickweed
# How it was run: as §1
# [35] = tested on: bulrush; experiment: Test Example 2: weedkilling efficacy, growth period weed treatment in the submerged state; B: bulrush
# How it was run: as §4
# [36] = tested on: bulrush; experiment: Test Example 1: weedkilling efficacy, preemergent weed treatment in the submerged state; B: bulrush
# How it was run: as §2
# [37] = tested on: redroot pigweed; experiment: Test Example 4: weedkilling efficacy by foliar treatment; L: redroot pigweed
# How it was run: as §3
# [38] = tested on: green foxtail; experiment: Test Example 3: weedkilling efficacy through soil treatment; E: green foxtail
# How it was run: as §1
# [39] = tested on: soybean; experiment: Test Example 4: foliar treatment, effect on crop; d: soybean
# How it was run: as §3
# [40] = tested on: wheat; experiment: Test Example 4: foliar treatment, effect on crop; e: wheat
# How it was run: as §3
# [41] = tested on: black-grass; experiment: Test Example 3: weedkilling efficacy through soil treatment; H: black-grass
# How it was run: as §1
# [42] = tested on: barnyard grass; experiment: Test Example 1: weedkilling efficacy, preemergent weed treatment in the submerged state; A: barnyard grass
# How it was run: as §2
# [43] = tested on: soybean; experiment: Test Example 3: soil treatment, effect on crop; d: soybean
# How it was run: as §1
structure (smiles),measurement,setting,value
CC1=C(c2cccnc2F)C(=O)N(C(C)(C)C(=O)Nc2cc(C(F)(F)F)cc(F)n2)CO1 [B-2-13],f (beet) effect on crop grade,[1],"4 (weed kill ratio 70% or more, less than 90%)"
same,e (wheat) effect on crop grade,[2],0 (weed kill ratio 5% or less (practically no effect))
same,D (crabgrass) weedkilling efficacy grade,[3],"5 (weed kill ratio 90% or more, (practically complete withering))"
same,C (oval-leafed pondweed) weedkilling efficacy grade,[4],"5 (weed kill ratio 90% or more, (practically complete withering))"
same,F (barnyard grass) weedkilling efficacy grade,[5],"5 (weed kill ratio 90% or more, (practically complete withering))"
same,H (black-grass) weedkilling efficacy grade,[6],"5 (weed kill ratio 90% or more, (practically complete withering))"
same,K (Indian mallow) weedkilling efficacy grade,[7],0 (weed kill ratio 5% or less (practically no effect))
same,K (Indian mallow) weedkilling efficacy grade,[8],"5 (weed kill ratio 90% or more, (practically complete withering))"
same,J (common wind-grass) weedkilling efficacy grade,[9],"5 (weed kill ratio 90% or more, (practically complete withering))"
same,F (barnyard grass) weedkilling efficacy grade,[10],"5 (weed kill ratio 90% or more, (practically complete withering))"
same,b (directly sown rice) effect on crop grade,[11],"5 (weed kill ratio 90% or more, (practically complete withering))"
same,I (Italian ryegrass) weedkilling efficacy grade,[12],"5 (weed kill ratio 90% or more, (practically complete withering))"
same,G (wild oat) weedkilling efficacy grade,[13],"3 (weed kill ratio 40% or more, less than 70%)"
same,O (catchweed) weedkilling efficacy grade,[14],"5 (weed kill ratio 90% or more, (practically complete withering))"
same,D (crabgrass) weedkilling efficacy grade,[15],"5 (weed kill ratio 90% or more, (practically complete withering))"
same,M (fig-leafed goosefoot) weedkilling efficacy grade,[16],"4 (weed kill ratio 70% or more, less than 90%)"
same,g (rapeseed) effect on crop grade,[17],"4 (weed kill ratio 70% or more, less than 90%)"
same,L (redroot pigweed) weedkilling efficacy grade,[18],"4 (weed kill ratio 70% or more, less than 90%)"
same,N (chickweed) weedkilling efficacy grade,[19],"4 (weed kill ratio 70% or more, less than 90%)"
same,f (beet) effect on crop grade,[20],"4 (weed kill ratio 70% or more, less than 90%)"
same,c (corn) effect on crop grade,[21],"1 (weed kill ratio 5% or more, less than 20%)"
same,M (fig-leafed goosefoot) weedkilling efficacy grade,[22],"3 (weed kill ratio 40% or more, less than 70%)"
same,I (Italian ryegrass) weedkilling efficacy grade,[23],"5 (weed kill ratio 90% or more, (practically complete withering))"
same,E (green foxtail) weedkilling efficacy grade,[24],"5 (weed kill ratio 90% or more, (practically complete withering))"
same,C (oval-leafed pondweed) weedkilling efficacy grade,[25],"5 (weed kill ratio 90% or more, (practically complete withering))"
same,G (wild oat) weedkilling efficacy grade,[26],"5 (weed kill ratio 90% or more, (practically complete withering))"
same,a (transplanted rice) effect on crop grade,[27],"1 (weed kill ratio 5% or more, less than 20%)"
same,c (corn) effect on crop grade,[28],"4 (weed kill ratio 70% or more, less than 90%)"
same,b (directly sown rice) effect on crop grade,[29],"3 (weed kill ratio 40% or more, less than 70%)"
same,P (birds-eye speedwell) weedkilling efficacy grade,[30],"5 (weed kill ratio 90% or more, (practically complete withering))"
same,A (barnyard grass) weedkilling efficacy grade,[31],"5 (weed kill ratio 90% or more, (practically complete withering))"
same,g (rapeseed) effect on crop grade,[32],"4 (weed kill ratio 70% or more, less than 90%)"
same,J (common wind-grass) weedkilling efficacy grade,[33],"5 (weed kill ratio 90% or more, (practically complete withering))"
same,N (chickweed) weedkilling efficacy grade,[34],"3 (weed kill ratio 40% or more, less than 70%)"
same,B (bulrush) weedkilling efficacy grade,[35],"5 (weed kill ratio 90% or more, (practically complete withering))"
same,B (bulrush) weedkilling efficacy grade,[36],"5 (weed kill ratio 90% or more, (practically complete withering))"
same,L (redroot pigweed) weedkilling efficacy grade,[37],"4 (weed kill ratio 70% or more, less than 90%)"
same,E (green foxtail) weedkilling efficacy grade,[38],"5 (weed kill ratio 90% or more, (practically complete withering))"
same,d (soybean) effect on crop grade,[39],"4 (weed kill ratio 70% or more, less than 90%)"
same,e (wheat) effect on crop grade,[40],0 (weed kill ratio 5% or less (practically no effect))
same,H (black-grass) weedkilling efficacy grade,[41],"5 (weed kill ratio 90% or more, (practically complete withering))"
same,A (barnyard grass) weedkilling efficacy grade,[42],"5 (weed kill ratio 90% or more, (practically complete withering))"
same,d (soybean) effect on crop grade,[43],0 (weed kill ratio 5% or less (practically no effect))
